# System: Pseudomonas aeruginosa
# Test: Antimicrobial activity against Pseudomonas aeruginosa 1957-00
# Assay type: functional
row,Structure (SMILES),MIC90
1,CC1(C)[C@H](NC(=O)/C(=N\OCc2cc(=O)c(O)cn2O)c2csc(N)n2)C(=O)N1OS(=O)(=O)O,0.25 µg/mL

# System: Pseudomonas aeruginosa
# Test: Antimicrobial activity against Pseudomonas aeruginosa 1768-00
# Assay type: functional
row,Structure (SMILES),MIC90
1,CC1(C)[C@H](NC(=O)/C(=N\OCc2cc(=O)c(O)cn2O)c2csc(N)n2)C(=O)N1OS(=O)(=O)O,0.5 µg/mL

# System: Pseudomonas aeruginosa
# Test: Antimicrobial activity against Pseudomonas aeruginosa 1562-05
# Assay type: functional
row,Structure (SMILES),MIC90
1,CC1(C)[C@H](NC(=O)/C(=N\OCc2cc(=O)c(O)cn2O)c2csc(N)n2)C(=O)N1OS(=O)(=O)O,1 µg/mL

# System: Pseudomonas aeruginosa
# Test: Antimicrobial activity against Pseudomonas aeruginosa 1753-00
# Assay type: functional
row,Structure (SMILES),MIC90
1,CC1(C)[C@H](NC(=O)/C(=N\OCc2cc(=O)c(O)cn2O)c2csc(N)n2)C(=O)N1OS(=O)(=O)O,4 µg/mL

# System: Pseudomonas aeruginosa
# Test: Antimicrobial activity against Pseudomonas aeruginosa PA-1757
# Assay type: functional
row,Structure (SMILES),MIC90
1,CC1(C)[C@H](NC(=O)/C(=N\OCc2cc(=O)c(O)cn2O)c2csc(N)n2)C(=O)N1OS(=O)(=O)O,8 µg/mL

# System: Pseudomonas aeruginosa
# Test: Antimicrobial activity against Pseudomonas aeruginosa 1568-05
# Assay type: functional
row,Structure (SMILES),MIC90
1,CC1(C)[C@H](NC(=O)/C(=N\OCc2cc(=O)c(O)cn2O)c2csc(N)n2)C(=O)N1OS(=O)(=O)O,0.5 µg/mL

# System: Pseudomonas aeruginosa
# Test: Antimicrobial activity against Pseudomonas aeruginosa 1954-00
# Assay type: functional
row,Structure (SMILES),MIC90
1,CC1(C)[C@H](NC(=O)/C(=N\OCc2cc(=O)c(O)cn2O)c2csc(N)n2)C(=O)N1OS(=O)(=O)O,0.25 µg/mL

# System: Pseudomonas aeruginosa
# Test: Antimicrobial activity against Pseudomonas aeruginosa 1565-05
# Assay type: functional
row,Structure (SMILES),MIC90
1,CC1(C)[C@H](NC(=O)/C(=N\OCc2cc(=O)c(O)cn2O)c2csc(N)n2)C(=O)N1OS(=O)(=O)O,0.5 µg/mL

# System: Pseudomonas aeruginosa
# Test: Antimicrobial activity against Pseudomonas aeruginosa 1612-09
# Assay type: functional
row,Structure (SMILES),MIC90
1,CC1(C)[C@H](NC(=O)/C(=N\OCc2cc(=O)c(O)cn2O)c2csc(N)n2)C(=O)N1OS(=O)(=O)O,16 µg/mL

# System: Pseudomonas aeruginosa
# Test: Antimicrobial activity against Pseudomonas aeruginosa 1764-00
# Assay type: functional
row,Structure (SMILES),MIC90
1,CC1(C)[C@H](NC(=O)/C(=N\OCc2cc(=O)c(O)cn2O)c2csc(N)n2)C(=O)N1OS(=O)(=O)O,0.5 µg/mL

# System: Pseudomonas aeruginosa
# Test: Antimicrobial activity against Pseudomonas aeruginosa 1512-08
# Assay type: functional
row,Structure (SMILES),MIC90
1,CC1(C)[C@H](NC(=O)/C(=N\OCc2cc(=O)c(O)cn2O)c2csc(N)n2)C(=O)N1OS(=O)(=O)O,0.5 µg/mL

# System: Pseudomonas aeruginosa
# Test: Antimicrobial activity against Pseudomonas aeruginosa 1956-00
# Assay type: functional
row,Structure (SMILES),MIC90
1,CC1(C)[C@H](NC(=O)/C(=N\OCc2cc(=O)c(O)cn2O)c2csc(N)n2)C(=O)N1OS(=O)(=O)O,0.5 µg/mL

# System: Pseudomonas aeruginosa
# Test: Antimicrobial activity against Pseudomonas aeruginosa 1613-09
# Assay type: functional
row,Structure (SMILES),MIC90
1,CC1(C)[C@H](NC(=O)/C(=N\OCc2cc(=O)c(O)cn2O)c2csc(N)n2)C(=O)N1OS(=O)(=O)O,0.5 µg/mL

# System: Pseudomonas aeruginosa
# Test: Antimicrobial activity against Pseudomonas aeruginosa 1566-05
# Assay type: functional
row,Structure (SMILES),MIC90
1,CC1(C)[C@H](NC(=O)/C(=N\OCc2cc(=O)c(O)cn2O)c2csc(N)n2)C(=O)N1OS(=O)(=O)O,1 µg/mL

# System: Pseudomonas aeruginosa
# Test: Antimicrobial activity against Pseudomonas aeruginosa 1523-08
# Assay type: functional
row,Structure (SMILES),MIC90
1,CC1(C)[C@H](NC(=O)/C(=N\OCc2cc(=O)c(O)cn2O)c2csc(N)n2)C(=O)N1OS(=O)(=O)O,1 µg/mL

# System: Pseudomonas aeruginosa
# Test: Antimicrobial activity against Pseudomonas aeruginosa 1563-00
# Assay type: functional
row,Structure (SMILES),MIC90
1,CC1(C)[C@H](NC(=O)/C(=N\OCc2cc(=O)c(O)cn2O)c2csc(N)n2)C(=O)N1OS(=O)(=O)O,0.5 µg/mL

# System: Pseudomonas aeruginosa
# Test: Antimicrobial activity against Pseudomonas aeruginosa 1510-08
# Assay type: functional
row,Structure (SMILES),MIC90
1,CC1(C)[C@H](NC(=O)/C(=N\OCc2cc(=O)c(O)cn2O)c2csc(N)n2)C(=O)N1OS(=O)(=O)O,8 µg/mL

# System: Pseudomonas aeruginosa
# Test: Antimicrobial activity against Pseudomonas aeruginosa 1570-05
# Assay type: functional
row,Structure (SMILES),MIC90
1,CC1(C)[C@H](NC(=O)/C(=N\OCc2cc(=O)c(O)cn2O)c2csc(N)n2)C(=O)N1OS(=O)(=O)O,0.5 µg/mL

# System: Pseudomonas aeruginosa
# Test: Antimicrobial activity against Pseudomonas aeruginosa 1615-09
# Assay type: functional
row,Structure (SMILES),MIC90
1,CC1(C)[C@H](NC(=O)/C(=N\OCc2cc(=O)c(O)cn2O)c2csc(N)n2)C(=O)N1OS(=O)(=O)O,1 µg/mL

# System: Pseudomonas aeruginosa
# Test: Antimicrobial activity against Pseudomonas aeruginosa 1766-00
# Assay type: functional
row,Structure (SMILES),MIC90
1,CC1(C)[C@H](NC(=O)/C(=N\OCc2cc(=O)c(O)cn2O)c2csc(N)n2)C(=O)N1OS(=O)(=O)O,0.5 µg/mL

# System: Pseudomonas aeruginosa
# Test: Antimicrobial activity against Pseudomonas aeruginosa 1514-08
# Assay type: functional
row,Structure (SMILES),MIC90
1,CC1(C)[C@H](NC(=O)/C(=N\OCc2cc(=O)c(O)cn2O)c2csc(N)n2)C(=O)N1OS(=O)(=O)O,2 µg/mL

# System: Pseudomonas aeruginosa
# Test: Antimicrobial activity against Pseudomonas aeruginosa PA-4995
# Assay type: functional
row,Structure (SMILES),MIC90
1,CC1(C)[C@H](NC(=O)/C(=N\OCc2cc(=O)c(O)cn2O)c2csc(N)n2)C(=O)N1OS(=O)(=O)O,0.5 µg/mL

# System: Pseudomonas aeruginosa
# Test: Antimicrobial activity against Pseudomonas aeruginosa 1619-08
# Assay type: functional
row,Structure (SMILES),MIC90
1,CC1(C)[C@H](NC(=O)/C(=N\OCc2cc(=O)c(O)cn2O)c2csc(N)n2)C(=O)N1OS(=O)(=O)O,0.06 µg/mL

# System: Pseudomonas aeruginosa
# Test: Antimicrobial activity against Pseudomonas aeruginosa 1761-00
# Assay type: functional
row,Structure (SMILES),MIC90
1,CC1(C)[C@H](NC(=O)/C(=N\OCc2cc(=O)c(O)cn2O)c2csc(N)n2)C(=O)N1OS(=O)(=O)O,4 µg/mL

# System: Pseudomonas aeruginosa
# Test: Antimicrobial activity against Pseudomonas aeruginosa 1561-05
# Assay type: functional
row,Structure (SMILES),MIC90
1,CC1(C)[C@H](NC(=O)/C(=N\OCc2cc(=O)c(O)cn2O)c2csc(N)n2)C(=O)N1OS(=O)(=O)O,2 µg/mL

# System: Pseudomonas aeruginosa
# Test: Antimicrobial activity against Pseudomonas aeruginosa 1951-00
# Assay type: functional
row,Structure (SMILES),MIC90
1,CC1(C)[C@H](NC(=O)/C(=N\OCc2cc(=O)c(O)cn2O)c2csc(N)n2)C(=O)N1OS(=O)(=O)O,1 µg/mL
